Results published in patent US20080248574A1, “ANTAGONISTS OF THE INTERACTION OF MELANOMA INHIBITORY ACTIVITY (MIA) AND P66SHC” (University of Pittsburgh - Of the Commonwealth System of …, priority 2007, published 2008).
Ends that are not written are not given here.

How the values were obtained:
HMB2 melanoma cells = assay: H2O2-induced cell death in HMB2 cells, cell viability by MTT absorbance; type: cell-based, human; conditions: 20 μM polypeptide; 50 μM H2O2 two hours later; viability after 24 hours; versus H2O2-treated cells in the absence of polypeptide; p<0.05; FIG. 1
Protocol: FIG. 1 is a graph showing the percentage of cell viability measured by MTT absorbance in HMB2 melanoma cells that were treated with a polypeptide comprising SEQ ID NO: 1 and SEQ ID NO: 2 (TAT-peptide) and H2O2.
To determine the effect of the administration of a polypeptide comprising SEQ ID NO: 1 on H2O2-induced cell death, HMB2 cells were administered 20 μM of the polypeptide. Two hours following the polypeptide administration, the cells were treated with 50 μM of H2O2. After 24 hours, the cell viability was quantified using MTT absorbance.

[1] = test system: MIA-expressing HMB2 human metastatic melanoma cells; assay: Entry of FITC-labeled polypeptide into HMB2 cells (phase contrast and image capture); type: cell-based; conditions: 10 μM FITC-labeled polypeptide, 2.5 hours after addition
Protocol: The ability of a polypeptide comprising SEQ ID NO: 4 to enter and sensitize MIA-expressing HMB2 human metastatic melanoma cells to oxidative stress-induced death was examined. Cells were treated with 10 μM FITC-labeled polypeptide, followed by phase contrast and image capture.

polypeptide comprising SEQ ID NO: 1: Polypeptide comprising residues 41-60 of the p66shc CH2 domain (SEQ ID NO: 1) and HIV TAT (SEQ ID NO: 2) (SLGPILPPLPGDDSPTTLCSYGRKKRRQRR)
sensitivity of H2O2-treated cells to H2O2-death (cell viability, MTT absorbance) (HMB2 melanoma cells): significantly increased

polypeptide comprising SEQ ID NO: 4: Polypeptide comprising a BRR domain (HIV TAT), spacer and CH2 domain portion of p66shc; FITC-labeled in the test (YGRKKRRQRRGGGSLGPILPPLPGDDSPTTLCS; also: FITC label, position not given here)
transduction of cells with the peptide [1]: the majority of the cells were transduced
